Assay results as given in patent publication US20120122860A1, “SOLID FORMS OF SULFONAMIDES AND AMINO ACIDS” (Plexxikon, Inc., priority 2009, published 2012).

Columns and labels:
TEC = target: T1, TEC (Homo sapiens, UniProt P42680); test: Kinase activity assay, TEC
T1 sequence (P42680 1-631): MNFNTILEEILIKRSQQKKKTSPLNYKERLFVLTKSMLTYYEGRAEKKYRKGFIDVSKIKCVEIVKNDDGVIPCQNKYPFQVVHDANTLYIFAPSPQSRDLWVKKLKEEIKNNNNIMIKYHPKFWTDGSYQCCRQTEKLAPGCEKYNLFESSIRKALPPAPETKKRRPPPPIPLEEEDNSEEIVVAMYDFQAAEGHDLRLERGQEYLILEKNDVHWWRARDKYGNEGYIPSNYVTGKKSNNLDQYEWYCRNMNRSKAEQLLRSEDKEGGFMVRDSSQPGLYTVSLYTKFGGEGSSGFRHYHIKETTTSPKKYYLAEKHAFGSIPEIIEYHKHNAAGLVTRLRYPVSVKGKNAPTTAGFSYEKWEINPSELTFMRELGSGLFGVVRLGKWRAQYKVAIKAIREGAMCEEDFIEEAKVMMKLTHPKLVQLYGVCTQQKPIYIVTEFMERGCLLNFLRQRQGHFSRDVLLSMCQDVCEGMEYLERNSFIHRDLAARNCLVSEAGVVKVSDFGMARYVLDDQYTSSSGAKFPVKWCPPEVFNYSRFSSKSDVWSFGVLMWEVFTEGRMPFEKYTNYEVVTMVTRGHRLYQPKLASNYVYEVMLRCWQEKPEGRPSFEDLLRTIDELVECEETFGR

C-Raf = C-Raf (Homo sapiens, UniProt P04049); test: Kinase activity assay, C-Raf
Src = Src (Homo sapiens, UniProt P12931); test: Kinase activity assay, Src
B-Raf = B-Raf (Homo sapiens, UniProt P15056); test: Kinase activity assay, B-Raf; format: biochemical; conditions: read-out: activity toward kinase B-Raf, IC50
B-Raf V600E = B-Raf V600E (Homo sapiens, UniProt P15056, V600E); test: Kinase activity assay, B-Raf V600E; format: biochemical; conditions: read-out: activity toward kinase B-Raf V600E, IC50
A-Raf = target: T2, A-Raf (Homo sapiens, UniProt P10398); test: Kinase activity assay, A-Raf
T2 sequence (P10398 1-606): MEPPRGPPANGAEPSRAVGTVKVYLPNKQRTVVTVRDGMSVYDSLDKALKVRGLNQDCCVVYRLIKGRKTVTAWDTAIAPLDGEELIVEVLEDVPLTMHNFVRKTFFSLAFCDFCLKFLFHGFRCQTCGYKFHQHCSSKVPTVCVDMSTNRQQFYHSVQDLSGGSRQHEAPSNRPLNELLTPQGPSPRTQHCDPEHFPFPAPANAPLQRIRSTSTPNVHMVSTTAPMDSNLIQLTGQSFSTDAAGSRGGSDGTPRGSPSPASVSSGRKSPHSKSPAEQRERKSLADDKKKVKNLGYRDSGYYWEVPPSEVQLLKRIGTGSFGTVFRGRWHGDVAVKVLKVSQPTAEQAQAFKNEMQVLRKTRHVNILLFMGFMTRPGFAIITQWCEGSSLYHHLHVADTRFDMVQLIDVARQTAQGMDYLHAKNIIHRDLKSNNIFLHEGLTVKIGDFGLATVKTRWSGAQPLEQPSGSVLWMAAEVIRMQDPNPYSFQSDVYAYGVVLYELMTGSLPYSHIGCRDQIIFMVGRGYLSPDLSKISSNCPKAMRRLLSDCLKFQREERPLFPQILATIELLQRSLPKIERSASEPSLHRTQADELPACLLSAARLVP

Kdr = Kdr (Homo sapiens, UniProt P35968); test: Kinase activity assay, Kdr
Kit = Kit (Homo sapiens, UniProt P10721); test: Kinase activity assay, Kit
MAP4K4 = MAP4K4 (Homo sapiens, UniProt O95819); test: Kinase activity assay, MAP4K4
Btk = Btk (Homo sapiens, UniProt Q06187); test: Kinase activity assay, Btk
Fms = Fms (Homo sapiens, UniProt P07333); test: Kinase activity assay, Fms

Measured: IC50

Btk, sequence (Q06187 whole entry): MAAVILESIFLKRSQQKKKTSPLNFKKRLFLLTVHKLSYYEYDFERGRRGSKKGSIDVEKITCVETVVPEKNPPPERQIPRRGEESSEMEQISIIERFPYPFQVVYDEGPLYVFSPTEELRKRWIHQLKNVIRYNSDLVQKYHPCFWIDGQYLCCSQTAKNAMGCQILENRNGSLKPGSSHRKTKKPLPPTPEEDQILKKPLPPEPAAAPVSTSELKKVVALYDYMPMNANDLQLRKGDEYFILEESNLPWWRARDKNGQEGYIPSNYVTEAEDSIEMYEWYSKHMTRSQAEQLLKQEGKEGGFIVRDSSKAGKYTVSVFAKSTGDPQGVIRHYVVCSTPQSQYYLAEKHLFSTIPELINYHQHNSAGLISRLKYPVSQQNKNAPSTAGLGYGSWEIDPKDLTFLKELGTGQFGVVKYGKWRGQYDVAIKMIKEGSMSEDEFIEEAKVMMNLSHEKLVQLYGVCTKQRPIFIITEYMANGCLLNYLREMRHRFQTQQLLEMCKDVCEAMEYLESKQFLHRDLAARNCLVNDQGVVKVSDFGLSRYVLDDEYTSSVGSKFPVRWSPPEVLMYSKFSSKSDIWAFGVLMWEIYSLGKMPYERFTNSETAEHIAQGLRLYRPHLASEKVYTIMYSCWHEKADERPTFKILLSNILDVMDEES
Fms, sequence (P07333 20-972): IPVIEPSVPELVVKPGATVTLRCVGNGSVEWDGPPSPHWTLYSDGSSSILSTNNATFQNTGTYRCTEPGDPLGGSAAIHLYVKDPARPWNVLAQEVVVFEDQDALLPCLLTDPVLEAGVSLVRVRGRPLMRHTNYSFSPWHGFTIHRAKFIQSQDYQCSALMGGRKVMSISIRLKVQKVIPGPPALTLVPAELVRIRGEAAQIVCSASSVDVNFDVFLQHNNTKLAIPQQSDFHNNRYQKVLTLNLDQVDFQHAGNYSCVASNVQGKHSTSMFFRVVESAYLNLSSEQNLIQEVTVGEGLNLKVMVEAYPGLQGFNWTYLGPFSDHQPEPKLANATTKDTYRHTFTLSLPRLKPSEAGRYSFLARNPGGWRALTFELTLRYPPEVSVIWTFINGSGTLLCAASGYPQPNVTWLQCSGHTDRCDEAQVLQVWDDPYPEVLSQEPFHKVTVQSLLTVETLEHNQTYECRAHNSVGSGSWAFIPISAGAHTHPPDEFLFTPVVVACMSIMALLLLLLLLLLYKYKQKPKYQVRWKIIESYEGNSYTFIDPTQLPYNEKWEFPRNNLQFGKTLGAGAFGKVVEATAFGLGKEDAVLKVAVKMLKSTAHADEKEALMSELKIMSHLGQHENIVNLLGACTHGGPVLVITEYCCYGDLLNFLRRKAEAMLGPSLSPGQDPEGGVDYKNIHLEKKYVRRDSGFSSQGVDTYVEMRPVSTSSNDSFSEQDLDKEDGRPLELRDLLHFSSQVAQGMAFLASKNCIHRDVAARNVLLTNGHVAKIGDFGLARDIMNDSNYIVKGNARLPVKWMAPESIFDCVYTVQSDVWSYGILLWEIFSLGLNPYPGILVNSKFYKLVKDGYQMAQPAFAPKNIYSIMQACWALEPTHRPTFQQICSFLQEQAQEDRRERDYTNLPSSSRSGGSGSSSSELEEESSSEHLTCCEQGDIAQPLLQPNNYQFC
B-Raf, sequence (P15056 whole entry): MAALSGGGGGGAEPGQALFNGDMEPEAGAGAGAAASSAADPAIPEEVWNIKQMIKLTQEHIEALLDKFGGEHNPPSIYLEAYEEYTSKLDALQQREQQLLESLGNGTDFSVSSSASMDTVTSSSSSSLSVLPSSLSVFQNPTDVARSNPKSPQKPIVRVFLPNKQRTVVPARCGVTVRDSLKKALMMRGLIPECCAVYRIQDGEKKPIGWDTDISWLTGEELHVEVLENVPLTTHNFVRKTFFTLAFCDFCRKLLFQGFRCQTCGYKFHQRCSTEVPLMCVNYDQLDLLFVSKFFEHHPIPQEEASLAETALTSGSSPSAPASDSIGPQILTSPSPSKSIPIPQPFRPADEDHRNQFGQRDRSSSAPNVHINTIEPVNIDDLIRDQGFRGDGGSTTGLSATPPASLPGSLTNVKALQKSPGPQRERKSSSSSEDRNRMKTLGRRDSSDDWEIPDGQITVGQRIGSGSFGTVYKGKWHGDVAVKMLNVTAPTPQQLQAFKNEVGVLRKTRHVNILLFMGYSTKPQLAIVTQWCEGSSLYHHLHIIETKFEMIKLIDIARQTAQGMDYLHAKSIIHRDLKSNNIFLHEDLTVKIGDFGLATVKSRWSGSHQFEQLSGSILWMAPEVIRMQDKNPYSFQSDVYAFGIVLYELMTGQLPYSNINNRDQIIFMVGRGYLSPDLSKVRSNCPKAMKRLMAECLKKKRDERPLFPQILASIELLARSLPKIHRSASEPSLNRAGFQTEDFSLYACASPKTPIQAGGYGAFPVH
Kdr, sequence (P35968 20-1356): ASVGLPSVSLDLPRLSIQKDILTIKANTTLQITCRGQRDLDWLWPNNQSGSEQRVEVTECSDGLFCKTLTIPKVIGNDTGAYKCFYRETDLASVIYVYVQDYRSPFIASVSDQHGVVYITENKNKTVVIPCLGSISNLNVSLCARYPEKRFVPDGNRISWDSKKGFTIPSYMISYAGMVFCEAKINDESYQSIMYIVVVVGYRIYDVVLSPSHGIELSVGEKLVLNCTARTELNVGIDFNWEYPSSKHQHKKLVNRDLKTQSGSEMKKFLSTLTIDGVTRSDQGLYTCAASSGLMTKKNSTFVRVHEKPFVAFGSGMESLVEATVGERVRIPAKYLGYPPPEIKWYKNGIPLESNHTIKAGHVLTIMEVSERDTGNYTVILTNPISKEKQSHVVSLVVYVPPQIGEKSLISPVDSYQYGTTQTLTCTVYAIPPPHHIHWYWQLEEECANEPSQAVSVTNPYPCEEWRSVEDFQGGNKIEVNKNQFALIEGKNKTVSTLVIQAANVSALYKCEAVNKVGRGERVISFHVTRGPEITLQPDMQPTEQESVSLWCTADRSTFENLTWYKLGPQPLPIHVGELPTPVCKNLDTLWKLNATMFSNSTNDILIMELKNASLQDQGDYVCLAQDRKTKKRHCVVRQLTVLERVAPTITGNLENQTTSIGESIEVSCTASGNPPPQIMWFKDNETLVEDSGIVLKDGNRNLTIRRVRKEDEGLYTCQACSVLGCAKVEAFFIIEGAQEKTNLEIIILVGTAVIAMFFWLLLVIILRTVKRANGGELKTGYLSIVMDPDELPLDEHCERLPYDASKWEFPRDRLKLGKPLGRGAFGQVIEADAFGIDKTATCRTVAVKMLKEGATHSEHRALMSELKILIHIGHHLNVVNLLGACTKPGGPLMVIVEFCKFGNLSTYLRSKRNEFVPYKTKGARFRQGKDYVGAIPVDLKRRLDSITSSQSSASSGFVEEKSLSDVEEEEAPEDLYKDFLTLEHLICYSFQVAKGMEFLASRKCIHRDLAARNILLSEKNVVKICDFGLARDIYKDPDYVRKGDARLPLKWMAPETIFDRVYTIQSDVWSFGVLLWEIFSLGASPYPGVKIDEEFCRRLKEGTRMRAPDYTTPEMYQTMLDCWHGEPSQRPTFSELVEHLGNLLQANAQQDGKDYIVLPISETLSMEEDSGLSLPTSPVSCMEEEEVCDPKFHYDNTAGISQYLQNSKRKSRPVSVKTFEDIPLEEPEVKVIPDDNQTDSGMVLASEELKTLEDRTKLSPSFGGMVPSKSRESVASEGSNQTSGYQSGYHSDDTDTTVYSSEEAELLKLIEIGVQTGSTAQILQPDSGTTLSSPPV
Kit, sequence (P10721 26-976): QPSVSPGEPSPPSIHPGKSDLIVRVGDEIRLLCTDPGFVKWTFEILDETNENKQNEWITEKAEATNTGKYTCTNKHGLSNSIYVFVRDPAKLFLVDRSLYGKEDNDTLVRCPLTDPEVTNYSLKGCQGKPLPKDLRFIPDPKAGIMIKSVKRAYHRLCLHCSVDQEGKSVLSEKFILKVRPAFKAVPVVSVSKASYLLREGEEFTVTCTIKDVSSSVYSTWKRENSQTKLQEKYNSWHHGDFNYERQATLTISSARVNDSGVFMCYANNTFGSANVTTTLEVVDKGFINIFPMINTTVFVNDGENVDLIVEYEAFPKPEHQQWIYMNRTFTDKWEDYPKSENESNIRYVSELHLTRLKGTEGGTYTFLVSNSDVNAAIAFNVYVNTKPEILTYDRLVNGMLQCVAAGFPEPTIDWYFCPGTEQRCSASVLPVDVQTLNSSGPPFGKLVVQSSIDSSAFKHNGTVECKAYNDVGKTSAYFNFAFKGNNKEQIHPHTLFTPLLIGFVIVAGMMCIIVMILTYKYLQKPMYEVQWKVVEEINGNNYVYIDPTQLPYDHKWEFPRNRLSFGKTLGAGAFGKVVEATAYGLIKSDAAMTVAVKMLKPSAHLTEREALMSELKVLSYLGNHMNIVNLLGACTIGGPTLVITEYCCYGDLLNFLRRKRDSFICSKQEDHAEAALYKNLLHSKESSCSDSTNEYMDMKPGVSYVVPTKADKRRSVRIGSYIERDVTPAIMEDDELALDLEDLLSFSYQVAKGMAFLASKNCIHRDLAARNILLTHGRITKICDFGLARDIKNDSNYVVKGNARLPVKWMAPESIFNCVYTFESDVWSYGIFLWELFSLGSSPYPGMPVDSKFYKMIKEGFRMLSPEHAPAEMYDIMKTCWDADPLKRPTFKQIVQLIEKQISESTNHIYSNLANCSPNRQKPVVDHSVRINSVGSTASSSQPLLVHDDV
B-Raf V600E, sequence (P15056 whole entry V600E): as the sequence (P15056 whole entry) above, with V600E counted along it

N#Cc1ccnc2[nH]cc(C(=O)c3c(F)ccc(NS(=O)(=O)c4ccccc4F)c3F)c12 [P-2020, N-[3-(4-Cyano-1H-pyrrolo[2,3-b]pyridine-3-carbonyl)-2,4-difluoro-phenyl]-2-fluoro-benzenesulfonamide]
not listed: MAP4K4 | Btk | Fms
≤ 10 µM: all other assays above

O=C(c1c(F)ccc(NS(=O)(=O)c2ccccn2)c1F)c1c[nH]c2ncc(Cl)cc12 [P-2067, Pyridine-2-sulfonic acid [3-(5-chloro-1H-pyrrolo[2,3-b]pyridine-3-carbonyl)-2,4-difluoro-phenyl]-amide]
not listed: Kit | Btk | Fms
≤ 10 µM: all other assays above

N#Cc1cnc2[nH]cc(C(=O)c3cccc(NS(=O)(=O)c4cccnc4)c3F)c2c1 [P-2086, Pyridine-3-sulfonic acid [3-(5-cyano-1H-pyrrolo[2,3-b]pyridine-3-carbonyl)-2-fluoro-phenyl]-amide]
≤ 10 µM: Btk

O=C(c1cc(NS(=O)(=O)c2ccc(F)cc2)ccc1F)c1c[nH]c2ncccc12 [P-2114, 4-Fluoro-N-[4-fluoro-3-(1H-pyrrolo[2,3-b]pyridine-3-carbonyl)-phenyl]-benzenesulfonamide]
≤ 10 µM: Btk | Fms | Kdr | Kit

CCCS(=O)(=O)Nc1ccc(F)c(C(=O)c2c[nH]c3ncc(-c4cnn(CC(C)C)c4)cc23)c1F [P-2157, Propane-1-sulfonic acid {2,4-difluoro-3-[5-(1-isobutyl-1H-pyrazol-4-yl)-1H-pyrrolo[2,3-b]pyridine-3-carbonyl]-phenyl}-amide]
≤ 10 µM: Btk | Fms | Src | B-Raf V600E | Kdr | Kit

CCCS(=O)(=O)Nc1ccc(F)c(C(=O)c2c[nH]c3ncc(-c4c(C)nn(C)c4C)cc23)c1F [P-2158, Propane-1-sulfonic acid {2,4-difluoro-3-[5-(1,3,5-trimethyl-1H-pyrazol-4-yl)-1H-pyrrolo[2,3-b]pyridine-3-carbonyl]-phenyl}-amide]
≤ 10 µM: Btk | Fms | Src | B-Raf V600E | Kdr | Kit

CCCS(=O)(=O)Nc1ccc(F)c(C(=O)c2c[nH]c3ncc(-c4ccc(F)c(OC)c4)cc23)c1F [P-2159, Propane-1-sulfonic acid {2,4-difluoro-3-[5-(4-fluoro-3-methoxy-phenyl)-1H-pyrrolo[2,3-b]pyridine-3-carbonyl]-phenyl}-amide]
≤ 10 µM: Btk | Fms | Src | B-Raf V600E | Kdr | Kit

CCCS(=O)(=O)Nc1ccc(F)c(C(=O)c2c[nH]c3ncc(-c4ccc(F)c(C(F)(F)F)c4)cc23)c1F [P-2160, Propane-1-sulfonic acid {2,4-difluoro-3-[5-(4-fluoro-3-trifluoromethyl-phenyl)-1H-pyrrolo[2,3-b]pyridine-3-carbonyl]-phenyl}-amide]
≤ 10 µM: Btk | B-Raf V600E | Kdr

CCCS(=O)(=O)Nc1ccc(F)c(C(=O)c2c[nH]c3ncc(CCCN4CCOCC4)cc23)c1F [P-2247, Propane-1-sulfonic acid {2,4-difluoro-3-[5-(3-morpholin-4-yl-propyl)-1H-pyrrolo[2,3-b]pyridine-3-carbonyl]-phenyl}-amide]
not listed: Src | Kit | Btk | Fms
≤ 10 µM: all other assays above

Cc1cnc2[nH]cc(C(=O)c3c(F)ccc(NS(=O)(=O)C(C)C)c3F)c2c1 [P-2278, Propane-2-sulfonic acid [2,4-difluoro-3-(5-methyl-1H-pyrrolo[2,3-b]pyridine-3-carbonyl)-phenyl]-amide]
not listed: Src | Kit | Btk | Fms
≤ 10 µM: all other assays above

N#Cc1cnc2[nH]cc(C(=O)c3c(F)ccc(NS(=O)(=O)C4CCC4)c3F)c2c1 [P-2353, Cyclobutanesulfonic acid [3-(5-cyano-1H-pyrrolo[2,3-b]pyridine-3-carbonyl)-2,4-difluoro-phenyl]-amide]
not listed: Src | Btk | Fms
≤ 10 µM: all other assays above

O=C(c1c(F)ccc(NS(=O)(=O)C2CCC2)c1F)c1c[nH]c2ncc(Cl)cc12 [P-2354, Cyclobutanesulfonic acid [3-(5-chloro-1H-pyrrolo[2,3-b]pyridine-3-carbonyl)-2,4-difluoro-phenyl]-amide]
not listed: Btk | Fms
≤ 10 µM: all other assays above

CCS(=O)(=O)Nc1cccc(C(=O)c2c[nH]c3ncc(C#N)cc23)c1F [P-2410, Ethanesulfonic acid [3-(5-cyano-1H-pyrrolo[2,3-b]pyridine-3-carbonyl)-2-fluoro-phenyl]-amide]
≤ 10 µM: Btk | C-Raf | B-Raf V600E

CCCS(=O)(=O)Nc1ccc(F)c(C(=O)c2c[nH]c3ncc(-c4cnn(C)c4)cc23)c1Cl [P-2429, Propane-1-sulfonic acid {2-chloro-4-fluoro-3-[5-(1-methyl-1H-pyrazol-4-yl)-1H-pyrrolo[2,3-b]pyridine-3-carbonyl]-phenyl}-amide]
≤ 10 µM: Btk | Fms | Src | B-Raf V600E

Cn1cc(-c2cnc3[nH]cc(C(=O)c4cc(NS(=O)(=O)C5CC5)ccc4F)c3c2)cn1 [P-2433, Cyclopropanesulfonic acid {4-fluoro-3-[5-(1-methyl-1H-pyrazol-4-yl)-1H-pyrrolo[2,3-b]pyridine-3-carbonyl]-phenyl}-amide]
≤ 10 µM: Btk | Fms | Src | B-Raf V600E | Kdr | Kit

CCCS(=O)(=O)Nc1cccc(C(=O)c2c[nH]c3ncc(Cl)cc23)c1 [P-2449, Propane-1-sulfonic acid [3-(5-chloro-1H-pyrrolo[2,3-b]pyridine-3-carbonyl)-phenyl]-amide]
≤ 10 µM: Btk | Fms | B-Raf V600E | Kdr | Kit

Cn1cc(-c2cnc3[nH]cc(C(=O)c4cccc(NS(=O)(=O)C5CC5)c4)c3c2)cn1 [P-2456, Cyclopropanesulfonic acid {3-[5-(1-methyl-1H-pyrazol-4-yl)-1H-pyrrolo[2,3-b]pyridine-3-carbonyl]-phenyl}-amide]
≤ 10 µM: Btk | Fms | B-Raf V600E | Kdr | Kit

CN(C)S(=O)(=O)Nc1ccc(F)c(C(=O)c2c[nH]c3ncccc23)c1 [P-2469, N,N-dimethylamino-sulfonic acid [4-fluoro-3-(1H-pyrrolo[2,3-b]pyridine-3-carbonyl)-phenyl]-amide]
≤ 10 µM: Btk | Fms | Kdr
